Results from patent publication US20250206708A1, “AN OXAZIRIDINE PLATFORM FOR TARGETING FUNCTIONAL ALLOSTERIC METHIONINE SITES” (Novartis AG, priority 2022, published 2025).

System: CDK4
Assay: Western blot of Rb phosphorylation (S780, S807/811) as cellular CDK4 activity
Assay type: cell-based, human
Conditions: serum-synchronized MCF-7 cells, dose of 500 μM
Description: Cells were synchronized to G1 via serum starvation. Cells were plated at 50% confluency and allowed to adhere overnight in serum-containing media. The next morning, the cells were gently washed twice with HBSS, and serum-free media was added. Cells were allowed to incubate an additional […], […]. Final cell confluency should remain below 75% for optimal results.
Cells were seeded in full media at 8 e5 cells/well in a 6-well plate. They were then serum-synchronized, as outlined in Example 15, and treated with compound as described previously. Cells were monitored by eye for cell death and harvested once high-dose cells were round but not detached. Cells were transferred to ice and washed twice gently with 1 mL ice-cold PBS. 10 mL of lysis buffer was prepared by dissolved a protease-inhibitor table (Pierce; cat no. A32953) and a phosphatase-inhibitor tablet (Roche; cat no. 4906845001) in 10 mL PBS (1% Triton X-100). Cells were scraped to harvest, transferred to 1.5 mL Eppendorf tubes, and incubated at 4° C. for 30 min on a rotator. Samples were spun at 5000×g for 10 min to clarify lysate. Supernatant was transferred to a new tube and protein concentration quantified via BCA assay (Pierce; cat no. 23225). Samples were normalized to the lowest concentration using chilled lysis buffer. […]

## O=C(N1CC2COCC2C1)N1OC1c1ccccc1 (stereo not shown) [Compound 148]
  signal from pRb antibodies (cellular CDK4 activity): marked decrease in signal
